As usually defined, the GI50 is the concentration at which growth is held to half of that of the control.

For one test, the system named is Du145 (Prostate). The test can be described thus: MTT cytotoxicity assay, Du145. In kind it is cell-based. Particulars: 72 h exposure.
The compound `[Cl][Pt][Cl].c1ccc(-c2ncc[nH]2)nc1` [Complex 2, [Pt(ImPy)(Cl)2]] returned a GI50 of 36 ± 1.3 µM.

`[Cl][Pt][Cl].c1ccc(-c2nc3ccccc3[nH]2)nc1` [Complex 3, [Pt(BImPy)(Cl)2]] came in with a GI50 above 50 µM.

On to `[Cl][Pt][Cl].c1ccc(C2CCCN2)nc1` (centres unmarked) [Complex 1, [Pt(PyPy)(Cl)2]], for which the GI50 was above 50 µM.

Regarding `N.N.[Cl][Pt][Cl]` [Cisplatin, reference compound], the GI50 worked out at 1.9 ± 0.2 µM.

Another test concerns H460 (Lung). The test can be described thus: MTT cytotoxicity assay, H460. Format: cell-based. Particulars: 72 h exposure. For orientation: Tetrazolium assays rely on reduction of a dye to a coloured formazan, in cell work by metabolically active cells.
In turn, `[Cl][Pt][Cl].c1ccc(-c2ncc[nH]2)nc1` [Complex 2, [Pt(ImPy)(Cl)2]] had a GI50 of 4 ± 1 µM.

`[Cl][Pt][Cl].c1ccc(-c2nc3ccccc3[nH]2)nc1` [Complex 3, [Pt(BImPy)(Cl)2]] showed a GI50 of 15 ± 3.1 µM.

For `[Cl][Pt][Cl].c1ccc(C2CCCN2)nc1` (centres unmarked) [Complex 1, [Pt(PyPy)(Cl)2]], growth was halved (GI50) at 16 ± 1.7 µM.

In turn, `N.N.[Cl][Pt][Cl]` [Cisplatin, reference compound] showed a 50% growth inhibitory concentration (GI50) of 2.4 ± 0.3 µM.

The test system of a further test is MCF10A (Breast, Normal). Nature of the test: MTT cytotoxicity assay, MCF10A non-cancer breast cells. In kind it is cell-based. The settings on record: 72 h exposure.
The compound `[Cl][Pt][Cl].c1ccc(-c2ncc[nH]2)nc1` [Complex 2, [Pt(ImPy)(Cl)2]] had a GI50 of 13 ± 0.6 µM.

Take `[Cl][Pt][Cl].c1ccc(-c2nc3ccccc3[nH]2)nc1` [Complex 3, [Pt(BImPy)(Cl)2]]: the GI50 is 45 ± 3.2 µM.

For the compound `[Cl][Pt][Cl].c1ccc(C2CCCN2)nc1` (centres unmarked) [Complex 1, [Pt(PyPy)(Cl)2]], the GI50 was above 50 µM.

The next test concerns A431 (Skin). The test can be described thus: MTT cytotoxicity assay, A431. Format: cell-based. The settings on record: 72 h exposure.
Compound `[Cl][Pt][Cl].c1ccc(-c2ncc[nH]2)nc1` [Complex 2, [Pt(ImPy)(Cl)2]] displayed a GI50 of 42 ± 3.5 µM.

Compound `[Cl][Pt][Cl].c1ccc(-c2nc3ccccc3[nH]2)nc1` [Complex 3, [Pt(BImPy)(Cl)2]] registered a GI50 of 47 ± 2.5 µM.

With `[Cl][Pt][Cl].c1ccc(C2CCCN2)nc1` (centres unmarked) [Complex 1, [Pt(PyPy)(Cl)2]], the GI50 is above 50 µM.

Compound `N.N.[Cl][Pt][Cl]` [Cisplatin, reference compound] registered a GI50 of 1.2 ± 0.1 µM.

The subject of another test is MCF-7 (Breast). Nature of the test: MTT cytotoxicity assay, MCF-7. Format: cell-based. Particulars: 72 h exposure.
On to `[Cl][Pt][Cl].c1ccc(-c2ncc[nH]2)nc1` [Complex 2, [Pt(ImPy)(Cl)2]], for which the GI50 was determined as 25 ± 2.3 µM.

In the case of `[Cl][Pt][Cl].c1ccc(-c2nc3ccccc3[nH]2)nc1` [Complex 3, [Pt(BImPy)(Cl)2]], the GI50 was found to be 12 ± 1.2 µM.

As to `[Cl][Pt][Cl].c1ccc(C2CCCN2)nc1` (centres unmarked) [Complex 1, [Pt(PyPy)(Cl)2]], halving of growth (GI50) required 30 ± 1 µM.

`N.N.[Cl][Pt][Cl]` [Cisplatin, reference compound]: the GI50 amounted to 6.5 ± 0.8 µM.

A further test has as its system BE2-C (Neuroblastoma). The test can be described thus: MTT cytotoxicity assay, BE2-C. Format: cell-based. The settings on record: 72 h exposure.
Regarding `[Cl][Pt][Cl].c1ccc(-c2ncc[nH]2)nc1` [Complex 2, [Pt(ImPy)(Cl)2]], the GI50 was found to be 37 ± 4 µM.

Turning to `[Cl][Pt][Cl].c1ccc(-c2nc3ccccc3[nH]2)nc1` [Complex 3, [Pt(BImPy)(Cl)2]], the GI50 was above 50 µM.

In turn, `[Cl][Pt][Cl].c1ccc(C2CCCN2)nc1` (centres unmarked) [Complex 1, [Pt(PyPy)(Cl)2]] showed a GI50 above 50 µM.

In the case of `N.N.[Cl][Pt][Cl]` [Cisplatin, reference compound], halving of growth (GI50) required 0.4 ± 0.1 µM.

A further test deals with U87 (Glioblastoma). Nature of the test: MTT cytotoxicity assay, U87. Format: cell-based. The settings on record: 72 h exposure.
As for `[Cl][Pt][Cl].c1ccc(-c2ncc[nH]2)nc1` [Complex 2, [Pt(ImPy)(Cl)2]], the GI50 was 30 ± 2 µM.

For the compound `[Cl][Pt][Cl].c1ccc(-c2nc3ccccc3[nH]2)nc1` [Complex 3, [Pt(BImPy)(Cl)2]], halving of growth (GI50) required 37 ± 2 µM.

Regarding `[Cl][Pt][Cl].c1ccc(C2CCCN2)nc1` (centres unmarked) [Complex 1, [Pt(PyPy)(Cl)2]], growth was halved (GI50) at 36 ± 1.5 µM.

`N.N.[Cl][Pt][Cl]` [Cisplatin, reference compound]: it took 4 ± 1.1 µM to inhibit growth by half (GI50).

The test system of the next test is SJ-G2 (Glioblastoma). Nature of the test: MTT cytotoxicity assay, SJ-G2. The settings on record: 72 h exposure. In kind it is cell-based.
Compound `[Cl][Pt][Cl].c1ccc(-c2ncc[nH]2)nc1` [Complex 2, [Pt(ImPy)(Cl)2]] displayed a GI50 of 14 ± 0.17 µM.

The compound `[Cl][Pt][Cl].c1ccc(-c2nc3ccccc3[nH]2)nc1` [Complex 3, [Pt(BImPy)(Cl)2]] displayed a GI50 of 42 ± 1.5 µM.

`[Cl][Pt][Cl].c1ccc(C2CCCN2)nc1` (centres unmarked) [Complex 1, [Pt(PyPy)(Cl)2]] displayed a GI50 above 50 µM.

`N.N.[Cl][Pt][Cl]` [Cisplatin, reference compound] showed a GI50 of 7.5 ± 1.3 µM.

The subject of a further test is HT29 (Colon). Nature of the test: MTT cytotoxicity assay, HT29. In kind it is cell-based. The settings on record: 72 h exposure.
The compound `[Cl][Pt][Cl].c1ccc(-c2ncc[nH]2)nc1` [Complex 2, [Pt(ImPy)(Cl)2]] came in with a GI50 of 34 ± 2 µM.

As for `[Cl][Pt][Cl].c1ccc(-c2nc3ccccc3[nH]2)nc1` [Complex 3, [Pt(BImPy)(Cl)2]], the GI50 was above 50 µM.

Take `[Cl][Pt][Cl].c1ccc(C2CCCN2)nc1` (centres unmarked) [Complex 1, [Pt(PyPy)(Cl)2]]: halving of growth (GI50) required 53 ± 1 µM.

As for `N.N.[Cl][Pt][Cl]` [Cisplatin, reference compound], halving of growth (GI50) required 11 ± 1.9 µM.

The next test concerns Calf-thymus DNA (ctDNA). The test can be described thus: Fluorescent intercalator displacement (FID) ctDNA binding assay with ethidium bromide. Details: Ka (binding coefficient) / KF (binding constant for fluorescence) / Kq (bimolecular quenching constant) / KSV (Stern–Volmer quenching constant): unit not given here. Particulars: 75 µM ethidium bromide, 150 µM ctDNA, pH 7.0. As for the experimental part: To achieve this, the fluorescent signal of a DNA intercalator, in this case, ethidium bromide (EtBr), is measured as increasing concentrations of PC are added. As the PC displaces the EtBr, the fluorescence of the mixture is diminished, and the DNA binding capacity of the complex can be calculated from the fluorescence measurement. Calf-thymus DNA (ctDNA) was used and saturated with EtBr. The change in fluorescence is monitored as the complex is titrated into this solution. Once the decrease in fluorescence plateaued, the titration was ended. […] The fluorescence was measured from 550-750 nm and excited at 480 nm. Importantly, the cuvette was inverted four times, and the solution was incubated for 3 min after the addition of […] to allow adequate time for the PCs to interact with the DNA before scanning. […] A plot of F0/F against [PC] using experimental values allowed the determination of Kq and KSV from the slope as per Equation (5). (5) […] where n is the number of ethidium ligands that are displaced per PC. It is important to note that this expression is a simplification of the true binding interaction, as it ignores the effect of EtBr on the binding equilibrium. […] A plot of Log10[(F0 - F)/F)] against Log10[PC] was used to determine KF and n from the intercept and slope, respectively.
As to `[Cl][Pt][Cl].c1ccc(-c2ncc[nH]2)nc1` [Complex 2, [Pt(ImPy)(Cl)2]], the “Binding Stoichiometry” value is on record as 3.82, the “KF (binding constant for fluorescence)” value is 3.12 × 10^3, the “KSV (Stern–Volmer quenching constant)” value is given as 1.68 × 10^3 and the “Ka (binding coefficient)” value is 2.75 × 10^4. Besides, the “Kq (bimolecular quenching constant)” value is on record as 0.50 × 10^3, the “n (molar equivalents of PC at the point of intersection)” value worked out at 1.18 and the “ΔFsat (change in fluorescence at the point of binding)” value is recorded as 80.9.

Regarding `[Cl][Pt][Cl].c1ccc(-c2nc3ccccc3[nH]2)nc1` [Complex 3, [Pt(BImPy)(Cl)2]], the “Binding Stoichiometry” value worked out at 3.40, the “KF (binding constant for fluorescence)” value was 3.72 × 10^3, the “KSV (Stern–Volmer quenching constant)” value is recorded as 2.18 × 10^3 and the “Ka (binding coefficient)” value was 5.10 × 10^4. The “Kq (bimolecular quenching constant)” value is 0.51 × 10^3, the “n (molar equivalents of PC at the point of intersection)” value was 1.24 and the “ΔFsat (change in fluorescence at the point of binding)” value stood at 110.3.

In the case of `[Cl][Pt][Cl].c1ccc(C2CCCN2)nc1` (centres unmarked) [Complex 1, [Pt(PyPy)(Cl)2]], the “Binding Stoichiometry” value is given as 3.61, the “KF (binding constant for fluorescence)” value is reported as 2.69 × 10^3, the “KSV (Stern–Volmer quenching constant)” value is given as 1.65 × 10^3 and the “Ka (binding coefficient)” value was 5.05 × 10^4. Moreover, the “Kq (bimolecular quenching constant)” value is 0.40 × 10^3, the “n (molar equivalents of PC at the point of intersection)” value was 0.91 and the “ΔFsat (change in fluorescence at the point of binding)” value is 99.1.

A further test has as its system MIA (Pancreas). Nature of the test: MTT cytotoxicity assay, MIA. Format: cell-based. Particulars: 72 h exposure.
For the compound `[Cl][Pt][Cl].c1ccc(-c2ncc[nH]2)nc1` [Complex 2, [Pt(ImPy)(Cl)2]], halving of growth (GI50) required 29 ± 2.3 µM.

For `[Cl][Pt][Cl].c1ccc(-c2nc3ccccc3[nH]2)nc1` [Complex 3, [Pt(BImPy)(Cl)2]], the GI50 is above 50 µM.

In turn, `[Cl][Pt][Cl].c1ccc(C2CCCN2)nc1` (centres unmarked) [Complex 1, [Pt(PyPy)(Cl)2]] registered a GI50 above 50 µM.

For the origin of these results see publication PMC10742472, “Synthesis and Characterisation of Platinum(II) Diaminocyclohexane Complexes with Pyridine Derivatives as Anticancer Agents” (International Journal of Molecular Sciences, 2023).
